Test results: ChEMBL document CHEMBL5303573, “Mapping human microbiome drug metabolism by gut bacteria and their genes” (Nature, 2019)

Assays:
[1] = The drug is tested on Anaerococcus hydrogenalis strain: DSM7454 for biotransformation. The drug concentrations were measured before and after a 12-h incubation by liquid-chromatography-coupled mass spectrometry (LC–MS); settings: 2 µM
[2] = bacteroides fragilis, 12 h, 2 µM
Description: The drug is tested on Bacteroides fragilis strain: NCTC 9343 for biotransformation. The drug concentrations were measured before and after a 12-h incubation by liquid-chromatography-coupled mass spectrometry (LC–MS)

[3] = The drug is tested on Bacteroides caccae strain: ATCC43185 for biotransformation. The drug concentrations were measured before and after a 12-h incubation by liquid-chromatography-coupled mass spectrometry (LC–MS); settings: 2 µM
[4] = The drug is tested on Bacteroides sp. WH2 strain: WH2 for biotransformation. The drug concentrations were measured before and after a 12-h incubation by liquid-chromatography-coupled mass spectrometry (LC–MS); settings: bacteroides sp. wh2, 12 h, 2 µM
[5] = The drug is tested on Clostridium scindens strain: ATCC35704 for biotransformation. The drug concentrations were measured before and after a 12-h incubation by liquid-chromatography-coupled mass spectrometry (LC–MS); settings: 2 µM
[6] = The drug is tested on Enterobacter cancerogenus strain: ATCC35316 for biotransformation. The drug concentrations were measured before and after a 12-h incubation by liquid-chromatography-coupled mass spectrometry (LC–MS); settings: 2 µM
[7] = bacteroides fragilis, 12 h, 2 µM; remark: listed apart in the source
Description: The drug is tested on Bacteroides fragilis strain: 3397 (T10) for biotransformation. The drug concentrations were measured before and after a 12-h incubation by liquid-chromatography-coupled mass spectrometry (LC–MS)

[8] = The drug is tested on Eubacterium ventriosum strain: ATCC27560 for biotransformation. The drug concentrations were measured before and after a 12-h incubation by liquid-chromatography-coupled mass spectrometry (LC–MS); type: ADME; design: dose 2 uM, timepoint 0 vs 12 hours; settings: 2 µM
[9] = bacteroides stercoris, 12 h, 2 µM
Description: The drug is tested on Bacteroides stercoris strain: ATCC43183 for biotransformation. The drug concentrations were measured before and after a 12-h incubation by liquid-chromatography-coupled mass spectrometry (LC–MS)

[10] = The drug is tested on Ruminococcus torques strain: ATCC27756 for biotransformation. The drug concentrations were measured before and after a 12-h incubation by liquid-chromatography-coupled mass spectrometry (LC–MS); type: ADME; design: dose 2 uM, timepoint 0 vs 12 hours; settings: 2 µM
[11] = The drug is tested on Bacteroides fragilis strain: HMW610 for biotransformation. The drug concentrations were measured before and after a 12-h incubation by liquid-chromatography-coupled mass spectrometry (LC–MS); settings: 2 µM
[12] = The drug is tested on Blautia luti strain: DSM14534 for biotransformation. The drug concentrations were measured before and after a 12-h incubation by liquid-chromatography-coupled mass spectrometry (LC–MS); type: ADME; design: dose 2 uM, timepoint 0 vs 12 hours; settings: 2 µM
[13] = bacteroides thetaiotaomicron, 12 h, 2 µM
Description: The drug is tested on Bacteroides thetaiotaomicron strain: 3731 for biotransformation. The drug concentrations were measured before and after a 12-h incubation by liquid-chromatography-coupled mass spectrometry (LC–MS)

[14] = The drug is tested on Bacteroides dorei strain: DSM17855 for biotransformation. The drug concentrations were measured before and after a 12-h incubation by liquid-chromatography-coupled mass spectrometry (LC–MS); settings: phocaeicola dorei, 2 µM
[15] = segatella copri, 12 h, 2 µM
Description: The drug is tested on Prevotella copri strain: DSM18205 for biotransformation. The drug concentrations were measured before and after a 12-h incubation by liquid-chromatography-coupled mass spectrometry (LC–MS)

[16] = The drug is tested on Enterococcus faecalis strain: V583 for biotransformation. The drug concentrations were measured before and after a 12-h incubation by liquid-chromatography-coupled mass spectrometry (LC–MS); settings: 2 µM
[17] = The drug is tested on Bacteroides fragilis strain: ATCC43859 for biotransformation. The drug concentrations were measured before and after a 12-h incubation by liquid-chromatography-coupled mass spectrometry (LC–MS); settings: 2 µM
[18] = The drug is tested on Bifidobacterium longum subsp. Infantis strain: CCUG52486 for biotransformation. The drug concentrations were measured before and after a 12-h incubation by liquid-chromatography-coupled mass spectrometry (LC–MS); settings: 2 µM
[19] = parabacteroides distasonis, 12 h, 2 µM
Description: The drug is tested on Parabacteroides distasonis strain: ATCC8503 for biotransformation. The drug concentrations were measured before and after a 12-h incubation by liquid-chromatography-coupled mass spectrometry (LC–MS)

[20] = The drug is tested on Bifidobacterium ruminantium strain: fecal isolate for biotransformation. The drug concentrations were measured before and after a 12-h incubation by liquid-chromatography-coupled mass spectrometry (LC–MS); settings: 2 µM

SMILES | Bacterial Biotransformation [1] | Bacterial Biotransformation [2] | Bacterial Biotransformation [3] | Bacterial Biotransformation [4] | Bacterial Biotransformation [5] | Bacterial Biotransformation [6] | Bacterial Biotransformation [7] | Bacterial Biotransformation [8] | Bacterial Biotransformation [9] | Bacterial Biotransformation [10] | Bacterial Biotransformation [11] | Bacterial Biotransformation [12] | Bacterial Biotransformation [13] | Bacterial Biotransformation [14] | Bacterial Biotransformation [15] | Bacterial Biotransformation [16] | Bacterial Biotransformation [17] | Bacterial Biotransformation [18] | Bacterial Biotransformation [19] | Bacterial Biotransformation [20]
CN(C)C(=O)Oc1cc(OC(=O)N(C)C)cc(C(O)CNC(C)(C)C)c1 (configuration not stated) [BAMBUTEROL] | Compound NOT metabolized | Compound NOT metabolized | Compound NOT metabolized | Compound NOT metabolized | Compound NOT metabolized | Compound NOT metabolized | Compound NOT metabolized | Compound NOT metabolized | Compound NOT metabolized | Compound NOT metabolized | Compound NOT metabolized | Compound NOT metabolized | Compound NOT metabolized | Compound NOT metabolized | Compound NOT metabolized | Compound NOT metabolized | Compound NOT metabolized | Compound NOT metabolized | Compound NOT metabolized | –
CN1CCN(CC/C=C2/c3ccccc3Sc3ccc(S(=O)(=O)N(C)C)cc32)CC1 [THIOTHIXENE] | Compound metabolized | Compound metabolized | Compound NOT metabolized | Compound NOT metabolized | Compound metabolized | Compound metabolized | Compound NOT metabolized | Compound metabolized | Compound metabolized | Compound NOT metabolized | Compound NOT metabolized | Compound NOT metabolized | Compound NOT metabolized | Compound metabolized | Compound metabolized | Compound NOT metabolized | Compound NOT metabolized | Compound NOT metabolized | Compound metabolized | –
CCOC(=O)[C@H](CCc1ccccc1)N[C@@H](C)C(=O)N1[C@H](C(=O)O)C[C@H]2CCCC[C@@H]21 [TRANDOLAPRIL] | Compound metabolized | Compound metabolized | Compound NOT metabolized | – | Compound NOT metabolized | Compound NOT metabolized | Compound metabolized | Compound NOT metabolized | – | Compound NOT metabolized | – | Compound NOT metabolized | – | Compound metabolized | Compound metabolized | – | Compound metabolized | Compound NOT metabolized | Compound metabolized | Compound metabolized
CCOC(=O)[C@H](CCc1ccccc1)N[C@@H](C)C(=O)N1Cc2ccccc2C[C@H]1C(=O)O | Compound NOT metabolized | Compound metabolized | Compound metabolized | Compound NOT metabolized | Compound NOT metabolized | Compound NOT metabolized | Compound metabolized | – | Compound metabolized | Compound NOT metabolized | – | Compound NOT metabolized | Compound metabolized | Compound metabolized | Compound metabolized | Compound NOT metabolized | Compound metabolized | Compound NOT metabolized | Compound metabolized | Compound metabolized
CC#C[C@]1(O)CC[C@H]2[C@@H]3CCC4=CC(=O)CCC4=C3[C@@H](c3ccc(N(C)C)cc3)C[C@@]21C [MIFEPRISTONE] | Compound NOT metabolized | Compound metabolized | Compound NOT metabolized | Compound NOT metabolized | Compound NOT metabolized | Compound NOT metabolized | Compound NOT metabolized | Compound NOT metabolized | Compound metabolized | Compound NOT metabolized | Compound metabolized | Compound NOT metabolized | Compound NOT metabolized | Compound metabolized | Compound NOT metabolized | Compound metabolized | Compound metabolized | Compound NOT metabolized | Compound NOT metabolized | –
CC(C)(C)NCC(O)c1cc(Cl)c(N)c(Cl)c1 (configuration not stated) [CLENBUTEROL] | Compound NOT metabolized | Compound NOT metabolized | Compound NOT metabolized | Compound NOT metabolized | Compound NOT metabolized | Compound NOT metabolized | Compound NOT metabolized | Compound NOT metabolized | Compound NOT metabolized | Compound NOT metabolized | Compound NOT metabolized | Compound NOT metabolized | Compound NOT metabolized | Compound NOT metabolized | Compound NOT metabolized | Compound NOT metabolized | Compound NOT metabolized | Compound NOT metabolized | Compound NOT metabolized | –
CCN(CC)CCOCCOC(=O)C1(c2ccccc2)CCCC1.O=C(O)CC(O)(CC(=O)O)C(=O)O [CARBETAPENTANE CITRATE] | Compound metabolized | Compound metabolized | Compound metabolized | Compound metabolized | Compound metabolized | Compound metabolized | Compound metabolized | Compound metabolized | Compound metabolized | Compound metabolized | – | Compound metabolized | Compound metabolized | Compound metabolized | Compound metabolized | Compound metabolized | Compound NOT metabolized | Compound metabolized | Compound metabolized | Compound metabolized
COC(=O)[C@H](c1ccccc1Cl)N1CCc2sccc2C1.O=S(=O)(O)O [CLOPIDOGREL BISULFATE] | Compound NOT metabolized | Compound metabolized | Compound NOT metabolized | Compound NOT metabolized | Compound NOT metabolized | Compound NOT metabolized | Compound metabolized | Compound NOT metabolized | Compound metabolized | Compound NOT metabolized | Compound metabolized | Compound NOT metabolized | Compound NOT metabolized | Compound metabolized | Compound NOT metabolized | Compound NOT metabolized | Compound metabolized | Compound NOT metabolized | Compound metabolized | –
